In patent publication US6570006B1, “Bacterial gene and method of treating a gram negative bacterial infection” (priority 1998, dated 2003):
Values after ≈ are worked out from the molar mass of the structure shown. “Also recorded” adds a separate entry of the source. Like-named read-outs stand apart in the source and are kept apart here.

Key:
[1] = system: CWG312 (F470 with a waaY::aacC1 insertion); assay: SDS and novobiocin sensitivity testing (MIC), waaY mutant; assay type: cell-based, Escherichia coli; conditions: for MIC / sensitivity compared with F470 (in words): strain CWG312 (waaY) versus F470 parent
Protocol: (§1) Bacterial Strains and Growth Conditions—E. coli F470 is an R-LPS derivative of an O8:K27 strain (Schmidt, G. et al, 1969), and serves as the prototype for R1 core OS studies. Derivatives of F470 used in this study include CWG296 (F470 with a waaP::aacC1 insertion), CWG297 (F470 with a waaQ::aacC1 insertion), and CWG312 (F470 with a waaY::aacC1 insertion). Bacteria were grown in Luria-Bertani (LB) broth at 37° C. Growth media were supplemented with ampicillin (100 μg/mL), gentamicin (15 μg/mL), or chloramphenicol (30 μg/mL) when necessary.
(§2) Sodium dodecyl sulfate (SDS) and Novobiocin Sensitivity Testing—Two-fold serial dilutions of SDS (200→0.1 mg/mL) and novobiocin (200→1.6 μg/mL) were made in 5 mL volumes of LB. Each series of tubes was point inoculated from an overnight culture of the strain to be tested, and then incubated with shaking at 37° C. Growth was scored as positive if after 8 hours the culture was visibly turbid (i.e. A600>0.2).
To test this possibility, strain CWG312 was derived by insertion of the aacC1 gene into the unique SnaBI site in the waaY coding region of F470 (FIG. 2B). The LPS from the resulting mutant migrated similarly to that of the F470 parent in sodium dodexyl sulphate-polyacrylamine gel electrophoresis (SDS-PAGE) (data not shown), precluding any significant effect of the mutation on core OS extension.

[2] = system: CWG297 (F470 with a waaQ::aacC1 insertion); assay: SDS and novobiocin sensitivity testing (MIC), waaQ mutant; assay type: cell-based, Escherichia coli; conditions: for MIC / sensitivity compared with F470 (in words): strain CWG297 (waaQ) versus F470 parent
Protocol: as §1, §2
Strain CWG297 was derived by insertion of the aacC1 gene into the unique NruI site in the waaQ coding region of F470 (FIG. 2B).

[3] = system: CWG296 (F470 with a waaP::aacC1 insertion); assay: SDS and novobiocin sensitivity testing (MIC), waaP mutant; assay type: cell-based, Escherichia coli; conditions: for MIC: Escherichia coli, LB, 37° C., 8 hours; for MIC / sensitivity of the mutant (in words): strain CWG296 (waaP); for increase in the susceptibility: strain CWG296 (waaP) versus F470 parent
Protocol: as §1, §2
Strain CWG296 was derived by insertion of the aacC1 gene into the unique NruI site in the waaP coding region of F470 (FIG. 2B). The resulting mutant was hypersensitive to novobiocin and SDS (Table II), as expected based on results from previous studies (Helander, I. M. et al., 1989; Parker, C. T. et al., 1992).

CWG296 (waaP) + pWQ909 = assay: SDS and novobiocin sensitivity testing (MIC), complemented waaP mutant; assay type: cell-based, Escherichia coli; conditions: for resistance after introduction of multicopy waaP (in words): CWG296 with plasmid pWQ909
Protocol: as §1
Cloning and Expression of waaP for Complementation—Oligonucleotide primers for the amplification of waaP from the F470 chromosome were designed to introduce appropriate restriction sites for cloning. The forward primer (5′-TGTGGATccAAATAGTGGGCACTCA-3′)(SEQ. I.D. No. 7) introduced a BamHI site (underlined) 32 base pairs downstream of the waaP stop codon, and the complementary reverse primer (5′-GGGTGGTCcatATGGTTGAACTTAA-3′)(SEQ. I.D. No. 8) introduced an NdeI site (underlined) overlapping the waaP start codon (bases shown in lower case indicate mismatches between the primer and chromosomal sequences). The coding region for waaP alone was subsequently isolated as a BamHI-NdeI fragment, and cloned behind the arabinose-inducible PBAD promoter of the expression vector pBAD18, to generate plasmid pWQ909. L-arabinose was used at a final concentration of 0.002% to induce expression of WaaP from plasmid pWQ909.
as §2
Strain CWG296 was derived by insertion of the aacC1 gene into the unique NruI site in the waaP coding region of F470 (FIG. 2B). […]

E. coli F470 (parent) = assay: SDS and novobiocin sensitivity testing (MIC), parent strain; assay type: cell-based; conditions: Escherichia coli, LB, 37° C., growth scored after 8 hours, read-out: Minimum inhibitory concentration (MIC) novobiocin
Protocol: as §1, §2

[4] = Escherichia coli, 8 h, read-out: Minimum inhibitory concentration (MIC) novobiocin

SMILES | MIC / sensitivity compared with F470 (in words) ([1]; sulfate) | MIC / sensitivity compared with F470 (in words) ([2]; sulfate) | MIC ([3]; read-out: Minimum inhibitory concentration (MIC) SDS) [µg/mL] | sensitivity of the mutant (in words) [3] | increase in the susceptibility [3] [fold] | resistance after introduction of multicopy waaP (in words) (CWG296 (waaP) + pWQ909) | MIC (E. coli F470 (parent)) [µg/mL] | MIC [1, 4] [µg/mL] | MIC / sensitivity compared with F470 (in words) [1] | MIC [2, 4] [µg/mL] | MIC / sensitivity compared with F470 (in words) [2] | MIC ([3]; read-out: Minimum inhibitory concentration (MIC) novobiocin) [µg/mL] | MIC (CWG296 (waaP) + pWQ909; Escherichia coli, strain CWG296 (waaP) + pWQ909, LB, 37° C., 8 hours, read-out: Minimum inhibitory concentration (MIC) novobiocin) [µg/mL]
CCCCCCCCCCCCOS(=O)(=O)[O-].[Na+] [SDS, Sodium dodecyl sulfate] | slightly less than for F470; also recorded: minor increase in the sensitivity | slightly less than for F470; also recorded: minor increase in the sensitivity | 100 | hypersensitive | > 1000 | restored wild-type levels of resistance | – | – | – | – | – | – | –
CO[C@@H]1[C@@H](OC(N)=O)[C@@H](O)[C@H](Oc2ccc3c(O)c(NC(=O)c4ccc(O)c(CC=C(C)C)c4)c(=O)oc3c2C)OC1(C)C [novobiocin] | – | – | – | hypersensitive | 32 | restored wild-type levels of resistance | 200 (≈ 326 µM) | 100 (≈ 163 µM) | slightly less than for F470; also recorded: minor increase in the sensitivity | 100 (≈ 163 µM) | slightly less than for F470; also recorded: minor increase in the sensitivity | 6.3 (≈ 10.3 µM) | 100
